Data: patent publication US12492173B2, “Herbicidal substituted N-tetrazolyl aryl carboxamides” (Bayer Aktiengesellschaft, priority 2019, dated 2025)

Columns and labels:
Format in all cases: in vivo
[1] = tested on: Polygonum convolvulus; test: Post-emergence herbicidal action, POLCO
In short: (§1)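 WP or EC formulations, diluted in water at 600 to 800 l/ha with 0.2% wetting agent, are sprayed onto green parts of one-leaf-stage plants grown in sandy loam. Visual assessment of percent damage relative to untreated controls follows after approximately 3 weeks in the greenhouse.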

[2] = tested on: Matricaria inodora; test: Pre-emergence herbicidal action, MATIN; settings: dosage 320 g/ha, scored visually after 3 weeks vs untreated controls (100% = plants have died)
In short: (§2)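 Percent damage, assessed visually after 3 weeks and referenced to untreated controls, reflects a pre-emergence treatment. Spray liquid equated to 600 to 800 l/ha with 0.2% wetting agent, applied to the covering soil over seeds in sandy loam.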

[3] = tested on: Amaranthus retroflexus; test: Post-emergence herbicidal action, AMARE; set-up: key: % herbicidal action vs untreated; 100 = plants died, 0 = like control
In short: as §1

[4] = tested on: Stellaria media; test: Pre-emergence herbicidal action, STEME; set-up: key to Herbicidal action against STEME: % activity: 100 = plants have died, 0 = like control plants; settings: for herbicidal activity STEME: dosage 320 g/ha, scored visually after 3 weeks vs untreated controls (100% = plants have died)
In short: as §2

[5] = tested on: Polygonum convolvulus; test: Pre-emergence herbicidal action, POLCO; settings: dosage 320 g/ha, scored visually after 3 weeks vs untreated controls (100% = plants have died)
In short: as §2

[6] = tested on: Viola tricolor; test: Pre-emergence herbicidal action, VIOTR; set-up: key to Herbicidal action against VIOTR: % activity: 100 = plants have died, 0 = like control plants; settings: for herbicidal activity VIOTR: dosage 320 g/ha, scored visually after 3 weeks vs untreated controls (100% = plants have died)
In short: as §2

[7] = comparative experiment, 20 g of a.i./ha

| Compound | herbicidal action POLCO ([1]; Dosage 80 g/ha) | herbicidal activity MATIN [2] [%] | herbicidal action AMARE ([3]; Dosage 80 g/ha) | herbicidal activity STEME [4] [%] | herbicidal activity POLCO [5] [%] | herbicidal activity VIOTR [6] [%] | herbicidal action POLCO ([1]; post-emergence, dosage 80 g/ha) [%] | herbicidal action AMARE ([3]; post-emergence, dosage 80 g/ha) [%] | Herbicidal action against STEME [4, 7] | Herbicidal action against VIOTR [6, 7] |
| --- | --- | --- | --- | --- | --- | --- | --- | --- | --- | --- |
| CCCn1nnnc1NC(=O)c1ccc(C(F)F)c(CSC)c1C [Example 3-107] | 90 | 100 | 90 | 100 | 90 | 100 | – | – | – | – |
| Cn1nnnc1NC(=O)c1ccc(C(F)(F)F)c(CS(C)(=O)=O)c1Br [Example 1-382, 2-bromo-3-[(methylsulfonyl)methyl]-N-(1-methyl-1H-tetrazol-5-yl)-4-(trifluoromethyl)benzamide] | 90 | 100 | 100 | 90 | 90 | 100 | – | – | – | – |
| CCn1nnnc1NC(=O)c1ccc(C(F)(F)F)c(C[S+](C)[O-])c1OC (centres unmarked) [Example 2-135] | 90 | 100 | 100 | 90 | 90 | 100 | – | – | – | – |
| CCCn1nnnc1NC(=O)c1ccc(C(F)(F)F)c(CSC)c1OC [Example 3-134] | 90 | 100 | 100 | 100 | 80 | 100 | – | – | – | – |
| CCCn1nnnc1NC(=O)c1ccc(C(F)(F)F)c(CS(=O)(=O)CC)c1Br [Example 3-385] | 90 | 100 | 90 | 90 | 80 | 100 | – | – | – | – |
| Cn1nnnc1NC(=O)c1ccc(C(F)(F)F)c(C[S+](C)[O-])c1Br (centres unmarked) [Example 1-381] | – | 100 | – | 90 | 90 | 100 | 80 | 100 | 90 | 90 |
| CCn1nnnc1NC(=O)c1ccc(C(F)(F)F)c(CSC)c1SC [Example 2-161] | – | 100 | – | 100 | 90 | 100 | 100 | 100 | – | – |
| CCCn1nnnc1NC(=O)c1ccc(C(F)(F)F)c(C[S+](C)[O-])c1Br (centres unmarked) [Example 3-381] | – | 100 | – | 90 | 80 | 100 | 80 | 90 | – | – |
| CCn1nnnc1NC(=O)c1ccc(C(F)F)c(CSC)c1C [Example 2-107] | 90 | 100 | 90 | 90 | 80 | 100 | – | – | – | – |
| Cc1c(C(=O)Nc2nnnn2C)ccc(C(F)(F)F)c1CS(C)(=O)=O [Example 1-85] | 80 | 100 | 90 | 100 | 90 | 100 | – | – | – | – |
| CCSCc1c(C(F)F)ccc(C(=O)Nc2nnnn2C)c1SCC [Example 1-191] | 90 | 100 | 80 | 100 | 100 | 100 | – | – | – | – |
| CSCc1c(C(F)F)ccc(C(=O)Nc2nnnn2C)c1C [Example 1-107, 4-(difluoromethyl)-2-methyl-3-[(methylsulfanyl)methyl]-N-(1-methyl-1H-tetrazol-5-yl)benzamide] | 90 | 100 | 90 | 90 | 80 | 90 | – | – | – | – |
| CCCn1nnnc1NC(=O)c1ccc(C(F)F)c(CSC)c1Cl [Example 3-320] | 90 | 100 | 80 | 100 | 90 | 100 | – | – | – | – |
